Reference: patent publication US20070160725A1, “Use of extracts and compounds of allium-genus plants as preservatives in the food and agri-food industries” (MOUSALA, S., L., priority 2004, published 2007)

Tests used:
Total mesophilic aerobes = test: microbiological quality of treated hamburgers and fresh sausage: total mesophilic aerobe count
Procedure: (§1) The tests were conducted on meat products such as hamburgers and fresh sausage at different doses, with and without the usual preservatives (sulfites).
(§2) Each sample is prepared in quintuplicate and microbiological quality control over time is conducted, a triplicate of each sample being performed.
The method used to determine the number of germs per gram was the dish count number, starting from serial decimal dilutions of the sample and using the surface seeding technique.
The culture medium used was nutrient agar (Merck PCA) prepared on Petri dishes on which, from the serial decimal dilutions of the sample (from −1 . . . to −6 in Merck triptone soy broth or TSB), 0.1 mL of each one of the dilutions was transferred.
Dish incubation temperature was 31±1° C.
The final result is expressed as the total microorganism count per gram of sample (said count is performed in the dilutions in which between 30-300 colonies/dish are detected).
(§3) Two different raw meat products (sausages and hamburgers) treated with different allicin doses are prepared. • The used testing doses were: 25, 50 and 100 ppm.
(§4) Five samples of each product (hamburger and sausage) are prepared, each one of them being analyzed in triplicate.
(§5) The microbiological parameters analyzed were as follows: • Total mesophilic aerobes • Coliforms • Escherichia coli • Salmonella (presence/absence in 25 g) • Said parameters were analyzed at different times: • 0 days • 4 days • 7 days • The sample references resulted as follows: […]

Salmonella = test: microbiological quality of treated hamburgers and fresh sausage: Salmonella study
Procedure: as §1, §2
The systematic testing used consisted of three steps: • a) Pre-enrichment in non-selective liquid medium. • b) Enrichment in selective liquid medium. • c) Differential isolation on selective solid means. a) Non-Selective Pre-Enrichment
The medium of choice is buffered peptone water.
25 g of the product to be analyzed are aseptically weighed and diluted in 225 mL of buffered peptone water to obtain a 1:10 dilution. It is mixed well and taken to be incubated at 37° C. for 16-20 hours.
The pre-enrichment culture is stirred and 10 mL thereof are taken with a sterile pipette, seeding it onto 100 mL of selenite-cysteine broth (Merck), incubating it at 37° C. for 18-24 hours.
From the culture obtained in the selective liquid medium, selenite-cysteine broth, seeding is performed on the second dish, in duplicate and without overloading the loop, on xylose lysine deoxycholate (XLD, Merck) agar, Rambach agar (Merck), and SS agar (Merck).
All the seeded dishes are incubated in an oven at 37° C. for 24-48 hours.
The test is positive when typical colonies are detected in at least two of the four mediums, which are confirmed with supplementary biochemical tests.
as §3, §4, §5

Coliforms = test: microbiological quality of treated hamburgers and fresh sausage: coliform count (MPN)
Procedure: as §1, §2
The method used to detect lactose-positive enterobacteria (coliforms) is based on its capacity to ferment lactose with the production of acid and gas in the presence of bile salts.
To that end a count was performed in liquid medium to determine a MPN on Brilliant Green Bile Lactose Broth (Merck Brila Broth).
Said Brilliant Broth is prepared in a test tube rack with 3 series of three tubes for each one of the samples to be analyzed. Each tube contains 10 ml of Brila Broth and 1 Durham tube.
1 mL of the dilution of the sample at 1:10 or (−1) is poured into each one of the tubes of the first series.
1 mL of the dilution of the sample at 1:100 or (−2) is poured into each one of the tubes of the second series.
1 mL of the dilution of the sample at 1:1000 or (−3) is poured into each one of the tubes of the third series.
The three series are incubated at 31±1° C., taking a reading at 24 and 48 hours.
The reaction is positive when gas discharge occurs inside the Durham tube, at least in 1/10 of its volume.
The Most Probable Number (MPN) table is used with the number of positive tubes in each series, and the data is extrapolated.
The result is finally expressed as the coliform count per gram of sample.
as §3, §4, §5

[1] = tested on: Bacillus megaterium, ATCC 33085; test: agar diffusion, inhibition halo; format: cell-based
Procedure: (§6) In order to evaluate the antimicrobial activity the agar diffusion technique with cellulose discs of 6 mm in diameter impregnated with the different active ingredient testing doses was used.
(§7) Antibacterial capacity was assessed against suspensions of 10^6 cells/ml, prepared from pure young cultures of each one of the strains to be tested. The culture medium used was Müller-Hinton medium (Merck).
(§8) After incubating the culture dishes inoculated with the different organisms at the corresponding temperatures, the microbial inhibition halos that appeared were measured, and said measurement includes the 6 mm diameter of the cellulose discs.

[2] = tested on: Bacillus cereus, CECT 1178; test: agar diffusion, inhibition halo; format: cell-based
Procedure: as §6, §7, §8

[3] = tested on: Micrococcus luteus, isolated from a spiced sausage; test: agar diffusion, inhibition halo; format: cell-based
Procedure: as §6, §7, §8

[4] = tested on: Listeria monocytogenes, ATCC 15313; test: agar diffusion, inhibition halo; format: cell-based
Procedure: as §6, §7, §8

[5] = tested on: Escherichia coli, CECT 515; test: agar diffusion, inhibition halo; format: cell-based
Procedure: as §6, §7, §8

[6] = hamburger, 25 ppm of allicin (H-1), t = 0 days
[7] = hamburger, 25 ppm of allicin (H-1), t = 4 days
[8] = hamburger, 50 ppm of allicin (H-2), t = 0 days
[9] = hamburger, 50 ppm of allicin (H-2), t = 4 days
[10] = hamburger, 100 ppm of allicin (H-3), t = 0 days
[11] = hamburger, 100 ppm of allicin (H-3), t = 4 days
[12] = sausage, 25 ppm of allicin (S-1), t = 0 days
[13] = sausage, 25 ppm of allicin (S-1), t = 4 days
[14] = sausage, 50 ppm of allicin (S-2), t = 0 days
[15] = sausage, 50 ppm of allicin (S-2), t = 4 days
[16] = sausage, 100 ppm of allicin (S-3), t = 0 days
[17] = sausage, 100 ppm of allicin (S-3), t = 4 days

Q: For `C=CCS[S+]([O-])CC=C` (centres unmarked) [Allicin, allyl allylthiosulfinate], which “reduction of total mesophilic aerobes with respect to untreated controls” value (Total mesophilic aerobes; allicin 100 ppm, all sausage samples and hamburgers, maintained from 0 to 4 days) is on record?
A: The value was “reduction of one logarithmic unit”.

Q: What about the Total aerobes (Total mesophilic aerobes; [6]) of the same compound?
A: The Total aerobes was 2.17 × 10^6 cfu/g.

Q: And the Total aerobes (Total mesophilic aerobes; [7])?
A: The Total aerobes was 1.56 × 10^8 cfu/g.

Q: What about the Total aerobes (Total mesophilic aerobes; [8]) of the same compound?
A: Its Total aerobes is 9.01 × 10^5 cfu/g.

Q: What about the Total aerobes (Total mesophilic aerobes; [9]) of the same compound?
A: The Total aerobes was 6.23 × 10^7 cfu/g.

Q: What about the Total aerobes (Total mesophilic aerobes; [10]) of the same compound?
A: Its Total aerobes is 4.08 × 10^5 cfu/g.

Q: And the Total aerobes (Total mesophilic aerobes; [11])?
A: Its Total aerobes is 3.17 × 10^7 cfu/g.

Q: And the Total aerobes (Total mesophilic aerobes; [12])?
A: Its Total aerobes is 2.24 × 10^5 cfu/g.

Q: What about the Total aerobes (Total mesophilic aerobes; [13]) of the same compound?
A: Its Total aerobes is 3.08 × 10^6 cfu/g.

Q: And the Total aerobes (Total mesophilic aerobes; [14])?
A: The Total aerobes was 8.99 × 10^4 cfu/g.

Q: What about the Total aerobes (Total mesophilic aerobes; [15]) of the same compound?
A: The Total aerobes was 2.72 × 10^6 cfu/g.

Q: What about the Total aerobes (Total mesophilic aerobes; [16]) of the same compound?
A: Its Total aerobes is 6.06 × 10^4 cfu/g.

Q: What about the Total aerobes (Total mesophilic aerobes; [17]) of the same compound?
A: The Total aerobes was 3.10 × 10^5 cfu/g.

Q: What about the Salmonella growth (Salmonella; allicin doses of 50 and 100 ppm) of the same compound?
A: Its Salmonella growth is “able to inhibit Salmonella growth”.

Q: And the “Salmonella (in 25 g)” value (Salmonella; [6])?
A: The value was “presence”.

Q: What about the “Salmonella (in 25 g)” value (Salmonella; [7]) of the same compound?
A: The value was “presence”.

Q: And the “Salmonella (in 25 g)” value (Salmonella; [8])?
A: Its value is “presence”.

Q: And the “Salmonella (in 25 g)” value (Salmonella; [9])?
A: The value was “presence”.

Q: And the “Salmonella (in 25 g)” value (Salmonella; [10])?
A: Its value is “presence”.

Q: What about the “Salmonella (in 25 g)” value (Salmonella; [11]) of the same compound?
A: Its value is “presence”.

Q: What about the “Salmonella (in 25 g)” value (Salmonella; [12]) of the same compound?
A: The value was “absence”.

Q: What about the “Salmonella (in 25 g)” value (Salmonella; [13]) of the same compound?
A: Its value is “presence”.

Q: What about the “Salmonella (in 25 g)” value (Salmonella; [14]) of the same compound?
A: The value was “absence”.

Q: What about the “Salmonella (in 25 g)” value (Salmonella; [15]) of the same compound?
A: The value was “presence”.

Q: And the “Salmonella (in 25 g)” value (Salmonella; [16])?
A: The value was “absence”.

Q: What about the “Salmonella (in 25 g)” value (Salmonella; [17]) of the same compound?
A: The value was “presence”.

Q: What about the Coliforms (Coliforms; [6]) of the same compound?
A: Its Coliforms is 150 cfu/g.

Q: What about the Coliforms (Coliforms; [7]) of the same compound?
A: Its Coliforms is >2400 cfu/g.

Q: And the Coliforms (Coliforms; [8])?
A: The Coliforms was 150 cfu/g.

Q: And the Coliforms (Coliforms; [9])?
A: Its Coliforms is 1100 cfu/g.

Q: And the Coliforms (Coliforms; [10])?
A: The Coliforms was 150 cfu/g.

Q: And the Coliforms (Coliforms; [11])?
A: Its Coliforms is 150 cfu/g.

Q: And the Coliforms (Coliforms; [12])?
A: Its Coliforms is 3 cfu/g.

Q: And the Coliforms (Coliforms; [13])?
A: Its Coliforms is 21 cfu/g.

Q: What about the Coliforms (Coliforms; [14]) of the same compound?
A: Its Coliforms is <3 cfu/g.

Q: And the Coliforms (Coliforms; [15])?
A: The Coliforms was 7 cfu/g.

Q: What about the Coliforms (Coliforms; [16]) of the same compound?
A: The Coliforms was <3 cfu/g.

Q: What about the Coliforms (Coliforms; [17]) of the same compound?
A: The Coliforms was <3 cfu/g.

Q: And the inhibition halo diameter ([1]; 25 ppm)?
A: Its inhibition halo diameter is 23 mm.

Q: What about the inhibition halo diameter ([1]; 50 ppm) of the same compound?
A: Its inhibition halo diameter is 27 mm.

Q: What about the inhibition halo diameter ([1]; 100 ppm) of the same compound?
A: The inhibition halo diameter was 34 mm.

Q: What about the inhibition halo diameter ([2]; 25 ppm) of the same compound?
A: The inhibition halo diameter was 22 mm.

Q: And the inhibition halo diameter ([2]; 50 ppm)?
A: Its inhibition halo diameter is 29 mm.

Q: And the inhibition halo diameter ([2]; 100 ppm)?
A: The inhibition halo diameter was 35 mm.

Q: What about the inhibition halo diameter ([3]; 25 ppm) of the same compound?
A: Its inhibition halo diameter is 19 mm.

Q: And the inhibition halo diameter ([3]; 50 ppm)?
A: Its inhibition halo diameter is 25 mm.

Q: What about the inhibition halo diameter ([3]; 100 ppm) of the same compound?
A: The inhibition halo diameter was 32 mm.

Q: What about the inhibition halo diameter ([4]; 25 ppm) of the same compound?
A: The inhibition halo diameter was 18 mm.

Q: And the inhibition halo diameter ([4]; 50 ppm)?
A: The inhibition halo diameter was 24 mm.

Q: And the inhibition halo diameter ([4]; 100 ppm)?
A: Its inhibition halo diameter is 30 mm.

Q: What about the inhibition halo diameter ([5]; 25 ppm) of the same compound?
A: Its inhibition halo diameter is 14 mm.

Q: And the inhibition halo diameter ([5]; 50 ppm)?
A: Its inhibition halo diameter is 17 mm.

Q: What about the inhibition halo diameter ([5]; 100 ppm) of the same compound?
A: The inhibition halo diameter was 21 mm.
